Test results reported in patent US20040110775A1, “Cyclin dependent kinase inhibiting purine derivatives” (priority 2001, published 2004).
“And” between values parts separate entries of the source, which are not always exact repeats. Equal entries are not always repeated. Where two headings read alike, the source gives them in different places.

Legend:
p34 cdc2(CDK1)/cyclinB = test: CDK assay: histone H1 phosphorylation with [32P]ATP by cdc2/cyclinB kinase; type: biochemical, starfish (Marthasterias glacialis); conditions: read-out: IC50 ± SD CDK1
Procedure: Assays are available for testing the inhibitory activity of the compounds of interest against a range of CDK/cyclin complexes, including CDK1/cyclin A, CDK1/cyclin B, CDK1/cyclin F, CDK2/cyclin A, CDK2/cyclin E, CDK4/cyclin D, CDK5/35 and CDK6/cyclin D3. […]
(§1) By way of example, however, a typical protocol is summarised below.
Buffer C (containing 6 mM β-glycerophosphate, 30 mM nitrophenyl phosphate, 25 mM MOPS pH 7.0, 5 mM EGTA, 15 mM MgCl2, […] and 0.1 mM sodium orthovanadate) is made up as follows:
Affinity purified p34 cdc2(CDK1)/cyclinB from M-phase starfish (Marthasterias glacialis) in 20% glycerol is stored at −80° C. in chest freezer
Histone H1 (type III-S (Sigma) 4° C.) 5 mg/ml in buffer C.
[^32P]ATP 75 mM: Make up using (multiples of) the following proportions:
DMSO cannot exceed 1% in the assay mixture. Inhibitors are added at 1/10 final assay volume and 10× final strength. DMSO stocks must therefore be diluted to 10× final desired concentration in ≦10% DMSO, ≧90% buffer C.
All reagents (except DMSO stocks) should be kept on ice until assay initiated.
Start reaction in each tube at 30 second intervals b)y adding
5 ml [^32P]ATP vortexing and placing in rack in waterbath at 30° C.
Terminate reaction after 10 min at 30 second intervals in tubes in same order by removing […] reaction mix and spotting onto appropriately labelled filter, allowing to dry for 20-30 seconds and transferring to stirring 1% phosphoric acid.
Blank incubation is performed as above but without histone (add […] buffer C instead) Washing blank is […] ATP added directly to filter.
Wash filters 5-6 times 5 min each
Dry the filters on paper towel
Count in mini scintillation vials with 5 ml scintillant.
NB. The assay can be simplified by making up stock reaction mix as follows:
(1 part cdc2/cyclinB, 16 parts buffer C, 5 parts histone H1)×Number of assay tubes+1 and add […] to each assay tube containing […] buffer C±inhibitor.
It is still necessary, however, to make up assay blank (i.e. without histone) separately.

CDK2 = CDK2 (Homo sapiens, UniProt P24941); test: Inhibition of CDK2 (CDK inhibition assay); type: biochemical; conditions: read-out: IC50 ± SD CDK2
Source text: Assays are available for testing the inhibitory activity of the compounds of interest against a range of CDK/cyclin complexes, including CDK1/cyclin A, CDK1/cyclin B, CDK1/cyclin F, CDK2/cyclin A, CDK2/cyclin E, CDK4/cyclin D, CDK5/35 and CDK6/cyclin D3.
Apart from reference compounds, the compounds listed are accompanied by an NU reference or identification code number.
as §1

| Structure (SMILES) | IC50 (p34 cdc2(CDK1)/cyclinB; values given in μM) | IC50 (CDK2; values given in μM) | IC50 (p34 cdc2(CDK1)/cyclinB; values in nM) | IC50 (CDK2; values in nM) |
| --- | --- | --- | --- | --- |
| c1ccc(Nc2nc(OCC3CCCCC3)c3nc[nH]c3n2)cc1 [NU6094, 2-Anilino-6-cyclohexylmethoxypurine] | 1.6 ± 0.1 µM | – | – | – |
| Brc1cccc(Nc2nc(OCC3CCCCC3)c3nc[nH]c3n2)c1 [NU6095, 2-(3′-Bromoanilino)-6-cyclohexylmethoxypurine] | 5.3 ± 0.8 µM | – | – | – |
| COc1cccc(Nc2nc(OCC3CCCCC3)c3nc[nH]c3n2)c1 [NU6096, 6-Cyclohexylmethoxy-2-(3′-methoxyanilino)purine] | 2.2 ± 0.2 µM | – | – | – |
| Fc1cccc(Nc2nc(OCC3CCCCC3)c3nc[nH]c3n2)c1 [NU6098, 6-Cyclohexylmethoxy-2-(3′-fluoroanilino)purine] | ~10 µM | ~10 µM | – | – |
| CCc1cccc(Nc2nc(OCC3CCCCC3)c3nc[nH]c3n2)c1 [NU6099, 6-Cyclohexylmethoxy-2-(3′-ethylanilino)purine] | > 10 µM | > 10 µM | – | – |
| COc1ccc(Nc2nc(OCC3CCCCC3)c3nc[nH]c3n2)cc1 [NU6100, 6-Cyclohexylmethoxy-2-(4′-methoxyanilino)purine] | 0.8 ± 0.01 µM | – | – | – |
| CSc1cccc(Nc2nc(OCC3CCCCC3)c3nc[nH]c3n2)c1 [NU6101, 6-Cyclohexylmethoxy-2-(3′-methylmercaptoanilino)purine] | 2.4 ± 0.2 µM | – | – | – |
| Fc1ccc(Nc2nc(OCC3CCCCC3)c3nc[nH]c3n2)cc1 [NU6116, 6-Cyclohexylmethoxy-2-(4′-fluoroanilino)purine] | > 10 µM | > 10 µM | – | – |
| CSc1ccc(Nc2nc(OCC3CCCCC3)c3nc[nH]c3n2)cc1 [NU6117, 6-Cyclohexylmethoxy-2-(4′-methylmercaptoanilino)purine] | > 10 µM | > 10 µM | – | – |
| COC(=O)c1ccc(Nc2nc(OCC3CCCCC3)c3nc[nH]c3n2)cc1 [NU6118, Methyl 4-N-(6′-Cyclohexylmethoxypurin-2′-yl)aminobenzoate] | ~10 µM | ~10 µM | – | – |
| Fc1ccc(Nc2nc(OCC3CCCCC3)c3nc[nH]c3n2)cc1Cl [NU6119, 6-Cyclohexylmethoxy-2-(3′-chloro-4′-fluoroanilino)purine] | ~10 µM | ~10 µM | – | – |
| N#CCc1ccc(Nc2nc(OCC3CCCCC3)c3nc[nH]c3n2)cc1 [NU6121, 6-Cyclohexylmethoxy-2-(4′-cyanomethylanilino)purine] | 0.3 ± 0.1 µM | 0.3 ± 0.03 µM | – | – |
| O=S(=O)(NCc1ccccc1)c1ccc(Nc2nc(OCC3CCCCC3)c3nc[nH]c3n2)cc1 [NU6123, N-Benzyl-4-(cyclohexylmethoxypurine-2-ylamino)-benzenesulfonamide] | 0.7 ± 0.3 µM | 0.2 ± 0.1 µM | – | – |
| NS(=O)(=O)c1ccc(CNc2nc(OCC3CCCCC3)c3nc[nH]c3n2)cc1 [NU6124, 4-[(6-Cyclohexylmethoxypurine-2-ylamino)methyl]benzenesulfonamide] | 17 ± 0.3 µM | 15 µM and 13 µM | – | – |
| CC(=O)c1ccc(Nc2nc(OCC3CCCCC3)c3nc[nH]c3n2)cc1 [NU6125] | 0.5 ± 0.2 µM | 0.3 ± 0.04 µM | – | – |
| C[S+]([O-])c1ccc(Nc2nc(OCC3CCCCC3)c3nc[nH]c3n2)cc1 (stereo not drawn) [NU6126] | 0.2 ± 0.1 µM | – | – | – |
| CNS(=O)(=O)c1ccc(Nc2nc(OCC3CCCCC3)c3nc[nH]c3n2)cc1 [NU6127, 4-(6-Cyclohexylmethoxy-2-ylamino)-N-methylbenzenesulfonamide] | – | – | 0.009 µM and 0.01 µM | – |
| CN(C)S(=O)(=O)c1ccc(Nc2nc(OCC3CCCCC3)c3nc[nH]c3n2)cc1 [NU6128, 4-(6-Cyclohexylmethoxy-2-ylamino)-N,N-dimethylbenzenesulfonamide] | – | – | 0.077 ± 0.005 µM | – |
| CCNS(=O)(=O)c1ccc(Nc2nc(OCC3CCCCC3)c3nc[nH]c3n2)cc1 [NU6129, 4-(6Cyclohexylmethoxy-2-ylamino)-N-ethylbenzenesulfonamide] | – | – | 0.007 µM and 0.009 µM | 0.008 ± 0.002 µM |

| Structure (SMILES) | IC50 (p34 cdc2(CDK1)/cyclinB; values given in μM) | IC50 (CDK2; values given in μM) | IC50 (p34 cdc2(CDK1)/cyclinB; values in nM) | IC50 (CDK2; values in nM) |
| --- | --- | --- | --- | --- |
| CC(C)CNS(=O)(=O)c1ccc(Nc2nc(OCC3CCCCC3)c3nc[nH]c3n2)cc1 [NU6130, 4-(6Cyclohexylmethoxy-2-ylamino)-N-isobutylbenzenesulfonamide] | – | – | 0.071 ± 0.009 µM | 0.069 ± 0.013 µM |
| O=S(=O)(NC1CC1)c1ccc(Nc2nc(OCC3CCCCC3)c3nc[nH]c3n2)cc1 [NU6131, 4-(6-Cyclohexylmethoxy-9H-purin-2-ylamino)-N-cyclopropylbenzenesulfonamide] | – | – | 0.013 ± 0.005 µM | 0.008 ± 0.0003 µM |
| O=S(=O)(Nc1cccc(Cl)c1)c1ccc(Nc2nc(OCC3CCCCC3)c3nc[nH]c3n2)cc1 [NU6132, N-(3-Chloro-phenyl)-4-(6-cyclohexylmethoxy-9H-purin-2-ylamino)benzenesulfonamide] | – | 5.7 µM | – | – |
| CCCNS(=O)(=O)c1ccc(Nc2nc(OCC3CCCCC3)c3nc[nH]c3n2)cc1 [NU6133, 4-(6-Cyclohexylmethoxy-9H-purin-2-ylamino)-N-propylbenzenesulfonamide] | – | – | 0.034 ± 0.004 µM | 0.017 ± 0.013 µM |
| O=S(=O)(NCC1CCCO1)c1ccc(Nc2nc(OCC3CCCCC3)c3nc[nH]c3n2)cc1 (stereo not drawn) [NU6134, 4-(6-Cyclohexylmethoxy-9H-purin-2-ylamino)-N-(tetrahydrofuran-2-ylmethyl)benzenesulfonamide] | – | – | 0.0072 µM and 0.0073 µM | 0.007 ± 0.0032 µM |
| COCCNS(=O)(=O)c1ccc(Nc2nc(OCC3CCCCC3)c3nc[nH]c3n2)cc1 [NU6135, 4-(6-Cyclohexylmethoxy-9H-purin-2-ylamino)-N-(2-methoxyethyl)benzenesulfonamide] | – | – | 0.018 ± 0.004 µM | 0.006 ± 0.0015 µM |
| CN(C)C(=O)c1ccc(Nc2nc(OCC3CCCCC3)c3nc[nH]c3n2)cc1 [NU6136, 4-(6-Cyclohexylmethoxy-9H-purin-2-ylamino)-N,N-dimethylbenzamide] | 0.6 µM | 0.2 µM | – | – |
| CNC(=O)c1ccc(Nc2nc(OCC3CCCCC3)c3nc[nH]c3n2)cc1 [NU6139, 4-(6-Cyclohexylmethoxy-9H-purin-2-ylamino)-N-methylbenzamide] | 0.7 µM | 0.3 µM | – | – |
| CCN(CC)C(=O)c1ccc(Nc2nc(OCC3CCCCC3)c3nc[nH]c3n2)cc1 [NU6140, 4-(6-Cyclohexylmethoxy-9H-purin-2-ylamino)-N,N-diethylbenzamide] | 0.7 µM | – | – | – |
| CCCNC(=O)c1ccc(Nc2nc(OCC3CCCCC3)c3nc[nH]c3n2)cc1 [NU6142, 4-(6-Cyclohexylmethoxy-9H-purin-2-ylamino)-N-propylbenzamide] | 0.42 µM | – | – | ~0.1 µM |
| CCNC(=O)c1ccc(Nc2nc(OCC3CCCCC3)c3nc[nH]c3n2)cc1 [NU6143, 4-(6-Cyclohexylmethoxy-9H-purin-2-ylamino)-N-ethylbenzamide] | – | – | > 0.1 µM | > 0.1 µM |
| O=S(=O)(NCCO)c1ccc(Nc2nc(OCC3CCCCC3)c3nc[nH]c3n2)cc1 [NU6144, 4-(6-Cyclohexylmethoxy-9H-purin-2-ylamino)-N-(2-hydroxyethyl)benzenesulfonamide] | – | – | 0.008 ± 0.0002 µM | 0.004 ± 0.0015 µM |
| O=S(=O)(Nc1nccs1)c1ccc(Nc2nc(OCC3CCCCC3)c3nc[nH]c3n2)cc1 [NU6145, 4-(6-Cyclohexylmethoxy-9H-purin-2-ylamino)-N-thiazol-2-ylbenzenesulfonamide] | – | – | 0.037 µM | 0.024 µM |
| CC(O)CNS(=O)(=O)c1ccc(Nc2nc(OCC3CCCCC3)c3nc[nH]c3n2)cc1 (stereo not drawn) [NU6146, 4-(6-Cyclohexylmethoxy-9H-purin-2-ylamino)-N-(2-hydroxypropyl)benzenesulfonamide] | – | – | 0.014 ± 0.007 µM | 0.005 ± 0.001 µM |
| O=C(O)c1ccc(Nc2nc(OCC3CCCCC3)c3nc[nH]c3n2)cc1 [NU6147, 4-(6-Cyclohexylmethoxypurin-2-ylamino)benzoic acid] | 0.24 µM | – | – | – |
| OCc1cccc(Nc2nc(OCC3CCCCC3)c3nc[nH]c3n2)c1 [NU6151, [3-(6-Cyclohexylmethoxy-9H-purin-2-ylamino)phenyl]methanol] | 0.3 ± 0.01 µM | – | – | – |
| O=S(=O)(Nc1ccccc1)c1ccc(Nc2nc(OCC3CCCCC3)c3nc[nH]c3n2)cc1 [NU6152, 4-(6-Cyclohexylmethoxy-9H-purin-2-ylamino)-N-phenyl-benzenesulfonamide] | 0.4 ± 0.1 µM | 0.2 ± 0.02 µM | – | – |
| O=S(=O)(NCC(O)CO)c1ccc(Nc2nc(OCC3CCCCC3)c3nc[nH]c3n2)cc1 (stereo not drawn) [NU6153, 4-(6-Cyclohexylmethoxy-9H-purin-2-ylamino)-N-(2,3-dihydroxypropyl)benzenesulfonamide] | – | – | 0.007 ± 0.001 µM | 0.005 ± 0.002 µM |
| COc1cc(Nc2nc(OCC3CCCCC3)c3nc[nH]c3n2)ccc1S(N)(=O)=O [NU6161, 4-[6-Cyclohexylmethoxy-9H-purin-2-ylamino]-benzene(3′-methoxy)sulfonamide] | – | – | 0.103 ± 0.004 µM | – |
